The target in the assay is T1, Gq coupled P2u purinergic receptor (THP-1) (Homo sapiens, UniProt P41231).
T1 construct: human monocytic leukemia cell line that carried the Gq coupled P2u purinergic receptor (THP-1); endogenous in cells; host or cells: THP-1 (human monocytic leukemia cell line)
The assay can be described thus: model calcium flux assay in THP-1 cells in a microfluidic device. The class given is cell-based. Particulars: THP-1 cells preloaded with Fluo-3 or Fluo-4; UTP 100, 300, 1000 and 3000 nM; detection 15 seconds after exposure. The text has this:
The device shown in FIG. 1A was used to test the dose response of a human monocytic leukemia cell line that carried the Gq coupled P2u purinergic receptor (THP-1), as a model calcium flux assay. Briefly, a phospholipase C/IP3/calcium signal transduction pathway is activated when the receptor binds to its ligand UTP. When the cells are preloaded with a calcium sensitive indicator, i.e., Fluo-3 or Fluo-4 (available from Molecular Probes, Eugene, Oreg.). The transient increase in intracellular calcium is then detected as a fluorescent signal.
In the present example, THP-1 cells were preloaded with Fluo-3 or Fluo-4, as well as a nucleic acid stain (Syto-62 from Molecular Probes). The cells were washed and resuspended in Cell Buffer (1.56 ml HBSS, 0.94 ml 33% Ficoll, 5 μl HEPES (1 M stock), 25 μl 100× PBC, 25 μl 10% BSA, and 0.546 ml OPTI-Prep (65% stock)) and added to reservoir 106. Different concentrations of UTP in Cell Buffer (100, 300, 1000 and 3000 nM, respectively) were then added to reagent reservoirs 110-116. […]
In order to monitor the stepwise increase of each UTP reagent solution, an additional marker solution, BODIPY-arginine, was added to the reagent reservoirs 110-116. […] Briefly, the slope of calcium signal (response) vs. Syto 62 signal (cell number) was calculated for each UTP concentration. […]
For orientation: A change in cytosolic calcium serves as a functional read-out for many receptors and channels.

T1 sequence (P41231 whole entry): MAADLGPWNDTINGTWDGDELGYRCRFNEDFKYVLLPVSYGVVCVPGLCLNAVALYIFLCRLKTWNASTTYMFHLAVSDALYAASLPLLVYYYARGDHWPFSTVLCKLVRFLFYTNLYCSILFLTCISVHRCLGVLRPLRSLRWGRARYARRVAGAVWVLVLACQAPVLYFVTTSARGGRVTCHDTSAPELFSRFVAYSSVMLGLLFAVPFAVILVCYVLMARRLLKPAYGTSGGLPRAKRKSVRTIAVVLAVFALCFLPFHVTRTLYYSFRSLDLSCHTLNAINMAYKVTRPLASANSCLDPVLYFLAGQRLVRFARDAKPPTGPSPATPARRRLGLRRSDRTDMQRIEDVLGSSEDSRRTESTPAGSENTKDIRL

Regarding `O=c1ccn([C@@H]2O[C@H](COP(=O)(O)OP(=O)(O)OP(=O)(O)O)[C@@H](O)[C@H]2O)c(=O)[nH]1` [UTP], the “calcium signal (fluorescent peaks from each cell) with stepwise addition of UTP” value was “increase discernibly in size”.
